According to patent EP0437846A2, “Solutions of decaplanin salts, their preparation and their use, as well as crystalline decaplanin salts, their preparation and their use” (HOECHST AKTIENGESELLSCHAFT, priority 1990, dated 1991):
Structures can show the parent of a compound that is named as a salt. Where two headings read alike, the source gives them in different places.

How the values were obtained:
[1] = thermal stability of aqueous solution (80 °C, 20 h); assay type: physicochemical
Text: Erfindungsgegenstand ist demzufolge eine wäßrige Lösung eines Decaplaninsalzes, ausgewählt aus der Gruppe der Decaplaninacetate, Decaplaninphosphate und Decaplanintartrate. Aus dieser Gruppe sind die Decaplaninacetate besonders bevorzugt. Die erfindungsgemäßen wässrigen Lösungen haben wie bereits erläutert den Vorteil, daß in ihnen das jeweilige Salz in relativ hoher Konzentration vorliegen kann, ohne daß das betreffende Salz ausfällt. […] So zeigt sich z.B. in einer 0,2 %igen wäßrigen Decaplaninmonoacetatlösung bei einer 20 stündigen Temperaturbelastung von 80 °C nur ein Wirkstoffverlust von weniger als 5 %; Vancomycinhydrochlorid hingegen weist bei einer analogen Behandlung nur noch einen Gehalt von etwa 25 % Vancomycinhydrochlorid auf. Die Instabilität des Vancomycins resultiert aus seiner Umwandlung zum sogenannten CDP (vgl. F. Sztaricskai und R. Bognar, Chemistry of the Vancomycin Group of Antibiotics. In:Recent Developments in the Chemistry of Natural Carbon Compounds, Vol. 10, PP 93-201, 1984, Akademiai Kiado, Budapest, 1983). Es ist besonders überraschend, daß die erfindungsgemäßen Decaplaninsalze diese Umwandlung nicht in diesem Ausmaß erleiden. Weiterhin besonders überraschend ist die bereits erwähnte, im Gegensatz zum Vancomycinhydrochlorid stehende gute lokale Verträglichkeit der erfindungsgemäßen wäßrigen Decaplaninsalzlösungen, die ohne besondere Vorsichtsmaßnahmen - wie langsame Injektion - injiziert werden können und auch subcutan verabreichbar sind.

[2] = commercial hydrochloride form, result in words; cited from earlier work
[3] = general knowledge on the commercial form, cited from earlier work
[4] = solubility in water; details: result in words
[5] = isoelectric point; assay type: physicochemical
[6] = toxicity and tolerability on injection; details: result in words; for Verträglichkeit: injection
[7] = viscosity / gelling of aqueous salt solutions; assay type: physicochemical; details: result in words
Experimental: 10,2 g des nach Beispiel 3 gewonnenen Gefriertrocknungsproduktes werden in 90 ml Wasser gelöst. Sie ergeben 100 ml einer Flüssigkeit mit einer Viskosität von weniger als 3 Centipoise (cP) bei 20 °C.
10 g des nach Beispiel 3 gewonnenen Produktes werden in 40 ml Wasser aufgenommen und durch Zugabe von […] Eisessig eine Decaplanindiacetatlösung hergestellt. Die Lösung hat einen pH-Wert von 4,2. Ihre Viskosität beträgt weniger als 3 cP bei 20 °C.

[8] = in vivo
[9] = water

Compound: CN[C@H](CC(C)C)C(=O)N[C@H]1C(=O)N[C@@H](CC(N)=O)C(=O)N[C@H]2C(=O)N[C@H]3C(=O)N[C@H](C(=O)N[C@H](C(=O)O)c4cc(O)cc(O)c4-c4cc3ccc4O)[C@H](O)c3ccc(c(Cl)c3)Oc3cc2cc(c3O[C@@H]2O[C@H](CO)[C@@H](O)[C@H](O)[C@H]2O[C@H]2C[C@](C)(N)[C@H](O)[C@H](C)O2)Oc2ccc(cc2Cl)[C@H]1O [Vancomycinhydrochlorid]
- remaining at 20 h ([1]; water, remaining content after analogous treatment (20 h, 80 °C), read-out: Gehalt): ~25%
- Löslichkeit [2]: relativ wenig löslichen Form
- Nebenwirkungen [3]: lokale Nekrosen, das "red man-Syndrom" sowie Oto- und Nephrotoxizität
- Verträglichkeit ([3]; injection): schlecht verträglich

Compound: Decaplanin
- Löslichkeit in Wasser [4]: relativ wenig wasserlöslich
- isoelektrischer Punkt [5]: 8,1 pH
- Verträglichkeit [6]: gute Verträglichkeit
- Toxizität [6]: sehr geringe Toxizität

Compound: Decaplaninacetat
- Gelieren / Viskosität der wäßrigen Lösung [7]: dünnflüssig
- Stabilität der Lösung [1]: stabil
- Toxizität [8]: sehr geringe Toxizität
- Löslichkeit (Konzentration) [9]: ca. 20 Gew.-%

Compound: Decaplaninmonoacetat
- Wirkstoffverlust ([1]; water, 20 h): < 5%

Compound: Decaplaninphosphate
- Toxizität [6]: sehr geringe Toxizität
- Verträglichkeit [8]: gute Verträglichkeit

Compound: Decaplanintartrate
- Löslichkeit in Wasser [4]: gutes Löslichkeitsverhalten
- Verträglichkeit [6]: gute Verträglichkeit
- Toxizität [6]: sehr geringe Toxizität

Compound: Hydrochlorid
- Gelieren / Viskosität der wäßrigen Lösung [7]: zähflüssig
- Löslichkeit in Wasser [4]: nicht ausreichend löslich
